The text below walks through data of patent US8404751B2, “Subunguicide, and method for treating onychomycosis” (Hallux, Inc., priority 2002, dated 2013).

Structures can show the parent of a compound that is named as a salt.

The series in a line: Solubility of terbinafine HCl in isopropyl alcohol. The format is physicochemical. Here is the method:
Terbinafine free base was prepared by adding 2.0 g of terbinafine HCl to 8.0 g of isopropyl alcohol (IPA) and 4.0 g Dowex Marathon A OH ion exchange resin. This resin exchanges OH^− for Cl^− and was washed with IPA prior to use. With the Cl^− removed from solution, the free base formed and the terbinafine went into solution within 5-10 minutes. (Terbinafine HCl is soluble in IPA up to 3.7%.) The reaction with the resin was run for 4 hours. Presence of the free base was confirmed by adding a drop of this IPA solution into water and measuring pH with a color strip. Adding the IPA solution caused the water pH to increase approximately one unit. The resin added OH^− to the solution, which reacted with H^+ and increased the water content. Excess water was removed by storing the terbinafine free base solution over molecular sieves for one week.

As to `CN(C/C=C/C#CC(C)(C)C)Cc1cccc2ccccc12` [Terbinafine HCl, terbinafine HCl], the “soluble in IPA up to” value amounted to 3.7%.
